Results: patent publication US20240197706A1, “METHODS OF IMPROVING THE PHARMACOKINETICS OF MIGALASTAT” (Amicus Therapeutics, Inc., priority 2022, published 2024)
Like-named read-outs stand apart in the source and are kept apart here.

What was measured:
[1] = AT1001-045 study: plasma migalastat bioavailability of 150 mg migalastat HCl capsule with caffeine and sweetener beverages relative to water; type: in vivo, human (healthy subjects); conditions: for AUC0-t Ratio / AUC0-∞ Ratio / Cmax Ratio: percent scale; for Cmax / AUC(0-t) / AUC(0-inf) / Tmax / half-life: both sexes, human, plasma, po, 150 mg; for Cmax: read-out: Cmax GeoMean; for AUC(0-t): read-out: AUC0-t GeoMean; for AUC(0-inf): read-out: AUC0-∞ GeoMean; for Tmax: read-out: tmax Median; for half-life: read-out: t1/2 Mean (converted)
Experimental: The example describes the AT1001-045 study, which was an open-label study of the bioavailability, safety and tolerability of migalastat in combination with caffeine and sweeteners.
The primary objective was to evaluate plasma migalastat bioavailability of the 150 mg migalastat HCl capsule in a caffeinated beverage, a sucrose beverage, a combination caffeinated and sucrose beverage, an aspartame artificial sweetener beverage, and an acesulfame potassium artificial sweetener beverage relative to water in healthy subjects.
The primary endpoints were ANOVA comparisons of interest between each test treatment and reference treatment for Cmax, AUC0-t and AUC0-∞. The comparisons of interest were point estimate ratios and lower/upper 90% confidence intervals.
This was a single-center, single dose, randomized, open-label, 6-way crossover study. Each subject received a single oral dose of migalastat HCl 150 mg for each of 6 periods.
In randomized sequence, each subject received a 150 mg migalastat HCl capsule with a caffeinated beverage, a sucrose drink, a combination caffeinated and sucrose beverage, an aspartame artificial sweetener drink, an acesulfame potassium artificial sweetener drink, or water.
All study treatments were administered in the fasted condition (overnight+4 hours post-dose).
Each single dose administration was followed by a 72-hour PK sampling period which also served as the between-treatment washout interval.
Appropriate migalastat exposure ratios (Cmax and AUC) with corresponding 90% confidence intervals will be used to address the comparisons of interest: • Caffeine (test) vs. water (reference) • Sucrose (test) vs. water (reference) • Caffeine+Sucrose (test) vs. water (reference) • Aspartame (test) vs. water (reference) • Acesulfame K (test) vs. water (reference)
• Study Population: male and female healthy subjects 18 to 45 years of age. • Sample Size: 20 subjects balanced for gender. • Dose: A single 150 mg capsule of migalastat hydrochloride, provided as GALAFOLD®.
The following test treatments were prepared: • Caffeinated beverage: 8 oz of caffeinated tea; nothing added; administered warm (40 to 50 degrees C.) and consumed within 10 minutes • Sucrose drink: 8 oz sucrose solution prepared with 26 grams sucrose, chilled before drug administration, and consumed within 10 minutes • Equivalent to sucrose content in one 8 oz serving of cane sugar-containing Coca-Cola® • Caffeinated+Sucrose drink: 8 oz caffeinated/sucrose beverage, chilled before drug administration, and consumed within 10 minutes (e.g., Jolt®) • Aspartame: 8 oz aspartame solution prepared with 125 mg aspartame, chilled before drug administration, and consumed within 10 minutes • Equivalent to aspartame content in one 8 oz can of Diet Coke® • Acesulfame K: 8 oz acesulfame K solution prepared with 30 mg acesulfame K, chilled before drug administration, and consumed within 10 minutes • Equivalent to acesulfame K content in one 8 oz can of Diet Coke® or Coca-Cola® Zero Sugar

[2] = as above; type: in vivo, human (healthy subjects); conditions: 280 mL of coffee containing approximately 190 mg caffeine at the time of dosing, compared to water
[3] = taken with food; cited from earlier work
[4] = Acesulfame K (test) vs. water (reference)
[5] = Aspartame (test) vs. water (reference)
[6] = Caffeine (test) vs. water (reference)
[7] = Caffeine + Sucrose (test) vs. water (reference)
[8] = Sucrose (test) vs. water (reference)
[9] = single oral 150 mg migalastat HCl capsule, fasted, with Acesulfame K drink
[10] = single oral 150 mg migalastat HCl capsule, fasted, with Aspartame drink
[11] = single oral 150 mg migalastat HCl capsule, fasted, with Caffeine + Sucrose drink
[12] = single oral 150 mg migalastat HCl capsule, fasted, with Caffeine beverage
[13] = single oral 150 mg migalastat HCl capsule, fasted, with Sucrose drink
[14] = single oral 150 mg migalastat HCl capsule, fasted, with water (reference)

mean reduction in AUC0-∞ ([1]; 280 mL of coffee containing approximately 190 mg caffeine at the time of dosing, compared to water): 57% | AUC0-t Ratio [1, 4]: 93.9 | AUC0-∞ Ratio [1, 4]: 96.1 | Cmax Ratio [1, 4]: 92.3 | AUC0-t Ratio [1, 5]: 104.9 | AUC0-∞ Ratio [1, 5]: 102.9 | Cmax Ratio [1, 5]: 103.3 | AUC0-t Ratio [1, 6]: 43.1 | AUC0-∞ Ratio [1, 6]: 45.8 | Cmax Ratio [1, 6]: 39.9 | AUC0-t Ratio [1, 7]: 46.9 | AUC0-∞ Ratio [1, 7]: 47.7 | Cmax Ratio [1, 7]: 45.9 | AUC0-t Ratio [1, 8]: 92.2 | AUC0-∞ Ratio [1, 8]: 91.8 | Cmax Ratio [1, 8]: 95.3 | Cmax ([1]; single oral 150 mg migalastat HCl capsule, fasted, healthy subjects, with water (reference)): 1330 ng/mL | AUC(0-t) [1, 9]: 8120 ng·h/mL | AUC(0-inf) [1, 9]: 8640 ng·h/mL | Cmax [1, 9]: 1220 ng/mL | Tmax [1, 9]: 4 h | AUC(0-t) [1, 10]: 9080 ng·h/mL | AUC(0-inf) [1, 10]: 9080 ng·h/mL | Cmax [1, 10]: 1370 ng/mL | half-life [1, 10]: 8.1 h | Tmax [1, 10]: 4 h | AUC(0-t) [1, 11]: 4050 ng·h/mL | AUC(0-inf) [1, 11]: 4270 ng·h/mL | Cmax [1, 11]: 611 ng/mL | half-life [1, 11]: 8.8 h | Tmax [1, 11]: 3 h | AUC(0-t) [1, 12]: 3720 ng·h/mL | AUC(0-inf) [1, 12]: 4100 ng·h/mL | Cmax [1, 12]: 529 ng/mL | half-life [1, 12]: 10.2 h | Tmax [1, 12]: 3 h | AUC(0-t) [1, 13]: 7960 ng·h/mL | AUC(0-inf) [1, 13]: 8030 ng·h/mL | Cmax [1, 13]: 1260 ng/mL | half-life [1, 13]: 7.8 h | Tmax [1, 13]: 3 h | AUC(0-t) [1, 14]: 8620 ng·h/mL | AUC(0-inf) [1, 14]: 8610 ng·h/mL | half-life [1, 14]: 7.5 h | Tmax [1, 14]: 4 h | rate of absorption (tmax) effect ([1]; coffee or sweetened beverages in comparison to water): not affected | AUC0-∞ GeoMean [1, 9]: 8621 ng·h/mL | t1/2 Mean [1, 9]: 7.2 h | AUC0-∞ GeoMean [1, 10]: 9043 ng·h/mL | AUC0-∞ GeoMean [1, 13]: 8008 ng·h/mL | AUC0-∞ GeoMean [1, 14]: 8570 ng·h/mL | mean difference in AUC (decrease) ([1]; sucrose vs water): 8% | bioequivalence to water (90% CI within 80% to 125%) ([1]; with acesulfame K): bioequivalent to water | bioequivalence to water (90% CI within 80% to 125%) ([1]; with aspartame): bioequivalent to water | bioequivalence to water (90% CI within 80% to 125%) ([1]; with sucrose): very close to bioequivalent | mean reduction in Cmax [2]: 60%
SMILES: OC[C@H]1NC[C@H](O)[C@@H](O)[C@H]1O [migalastat, (2R,3S,4R,5S)-2-(hydroxymethyl) piperdine-3,4,5-triol]
decrease in migalastat exposure [3]: approximately 40%
